Patent publication US20070286886A1, “Materials And Methods For Inducing Apoptosis In Adipocytes” (University of Tennessee Research Foundation, priority 2004, published 2007)

What was measured:
caspase-1 = experiment: Caspase-1 mRNA expression by real-time PCR in 3T3-L1 and UCP2-transfected 3T3-L1 adipocytes; type: cell-based; settings: 24 h, control and UCP2-transfected 3T3-L1 cells
Experimental: (§1) 3T3-L1 preadipocytes were incubated at a density of 8000 cells/cm2 (10 cm2 dish) and grown in Dulbecco's modified Eagle's medium (DMEM) containing 10% FBS and antibiotics (adipocyte medium) at 37° C. in 5% CO2 in air. Confluent preadipocytes were induced to differentiate with a standard differentiation medium consisting of DMEM-F10 (1:1, vol/vol) medium supplemented with 1% FBS, 1 μM dexamethasone, IBMX (0.5 mM), and antibiotics (1% penicillin-streptomycin). Preadipocytes were maintained in this differentiation medium for 3 days and subsequently cultured in adipocyte medium. Cultures were re-fed every 2-3 days to allow 90% cells to reach full differentiation before they were chemically treated. Chemicals were freshly diluted in adipocyte medium before treatment. Cells were washed with fresh adipocyte medium, re-fed with medium containing the different treatments, and incubated at 37° C. in 5% CO2 in air before analysis. Cell viability was measured via trypan blue exclusion.
(§2) UCP2 full-length cDNAs were amplified by […] using mRNAs isolated from mouse white adipose tissues. The PCR primers for this amplification are shown as follows: UCP2 forward, 5′-[…]-3′, reverse, 5′-[…]-3′. The PCR products were then subcloned into pcDNA4/His expression vectors. The linearized constructs were transfected into 3T3-L1 preadipocytes using lipofectamine plus standard protocol (Invitrogen, Carlsbad, Calif.). After 48 h of transfection, cells were split and cultured in selective medium containing 400 ug/ml zeocin for the selection of resistant colonies. […]
(§3) Adipocyte caspase-1, caspase-3, Bcl-2, and Bax mRNA were quantitatively measured using a Smart Cycler Real Time PCR System (Cepheid, Sunnyvale, Calif.) with a TaqMan 1000 Core Reagent Kit (Applied Biosystems, Branchburg, N.J.). […] Reactions of quantitative RT-PCR for standards and unknown samples were Cepheid, Sunnyvale, Calif.) and TaqMan Real Time PCR Core Kit. The mRNA quantitation for each sample was further normalized using the corresponding 18 s quantitation, with a forward primer, 5′-[…]-3′, and a reverse primer, 5′-[…]-3′.

Bcl-2/Bax = Bcl-2/Bax expression ratio by real-time PCR in 3T3-L1 and UCP2-transfected 3T3-L1 adipocytes; type: cell-based; settings: 24 h, P<0.01
Experimental: as §1, §2, §3

[1] = test system: 3T3-L1 and UCP2-transfected 3T3-L1 cells; experiment: Mitochondrial membrane potential (JC-1 fluorometry) in adipocytes; type: cell-based; settings: for mitochondrial potential: 4 h
Experimental: (§4) Adipocytes were incubated with adipocyte medium for 4 h with or without 1α,25-(OH)2-D3. Mitochondrial membrane potential was analyzed fluorometrically with a lipophilic cationic dye JC-1 (5,5′,6,6′-tetrachloro-1,1′,3,3′-tetraethylbenzimidazol carbocyanine iodide) using a mitochondrial potential detection kit (Biocarta, San Diego, Calif.). Mitochondrial potential was determined as the ratio of red fluorescence (excitation 550 nm, emission 600 nm) and green fluorescence (excitation 485 nm, emission 535 nm) using a fluorescence microplate reader.
as §4, with “GDP, BK 8644, GDP plus BK8644.” for “1α,25-(OH)2-D3.”

3T3-L1 and L1-UCP2 cells = experiment: Adipocyte apoptosis in 3T3-L1 and L1-UCP2 cells; type: cell-based
Experimental: as §1, with “Cells were washed with fresh adipocyte medium, re-fed with medium containing the different treatments, and incubated at 37° C. in 5% CO2 in air before analysis.” left out, “exclusion. […]” for “exclusion.”
as §3

UCP2 = UCP2 expression in 3T3-L1 cells (western blot, UCP2/actin); type: cell-based, mouse; settings: 3T3-L1 cells, BK8644
Experimental: Duplex siRNA corresponding to UCP2 gene was designed and chemically synthesized by Invitrogen. The following gene-specific sequences were used successfully: Si-UCP2 sense 5′-GCCUCUACGACUCUGUCAA-3′ and antisense […]. Transfection of siRNA was performed with Oligofectamine™ reagent (Invitrogen Life Technologies, CA) in 6-well plates. Briefly, Oligofectamine diluted in DMEM was applied to the duplex siRNA mixture, and the formulation was continued for 20 min to allow the Oligofectamine-oligonucleotide complex to form. Per well, 800 μl of plating medium and 10 ul of 20 μM duplex siRNA duplex siRNA formulated with 4 μl of Oligofectamine were applied in a final volume of 1 ml. Cells were then incubated at […] in a CO2 incubator for 4 hrs. […]
Adipocytes were harvested and sonicated in a homogenization buffer containing 50 mM Tris-HCl (PH 7.4), 250 mM sucrose, 1 mM EDTA, 1 mM dithiothreitol, 1% (v/v) Triton X, 10% protease cocktail (Sigma). […] Homogenate intrafranatant protein from equal numbers of cells (determined via protein quantitation using Bradford method as described previously) was boiled in Laemmli sample buffer and subject to 10% SDS-polyacrylamide gel electrophoresis (PAGE). […] Visualization was detected with chemiluminescence reagent, using the Western Blotting Luminal Reagent (Santa Cruz Biotechnology, CA).

caspase-1 expression (caspase-1; high dose 100 nM, P<0.01) | caspase-1 expression (caspase-1; physiological low doses 0.1 nM, 1 nM, 5 nM, 10 nM, P<0.05) | Compound | Bcl-2/Bax expression ratio (Bcl-2/Bax; high dose 100 nM, control and UCP2-transfected 3T3-L1 cells) | Bcl-2/Bax expression ratio (Bcl-2/Bax; lower levels (0.1-10 nM)) | mitochondrial potential ([1]; high dose (100 nM)) | mitochondrial potential ([1]; lower doses, 3T3-L1 and UCP2 stably transfected 3T3-L1 cells) | mitochondrial Δψ in L1-UCP2 cells ([1]; physiological doses (0.1-10 nM), L1-UCP2 cells) | apoptosis (3T3-L1 and L1-UCP2 cells; high dose (100 nM), 3T3-L1 and L1-UCP2 cells, P<0.05) | UCP2 overexpression-induced apoptosis (3T3-L1 and L1-UCP2 cells; physiological doses (0.1-10 nM), L1-UCP2 cells, P<0.01) | effect on mitochondrial potential ([1]; 3T3-L1 cells, BK8644 alone) | effect on UCP2 expression (UCP2)
stimulated | inhibited | C=C1/C(=C\C=C2/CCC[C@]3(C)[C@@H]([C@H](C)CCCC(C)(C)O)CC[C@@H]23)C[C@@H](O)C[C@@H]1O [1α,25-(OH)2-D3, 1α,25-dihydroxyvitamin D3] | significant decrease | dose-dependent increase | collapse | significantly increase | restored | stimulated | protected | – | –
– | – | COC(=O)C1=C(C)NC(C)=C([N+](=O)[O-])C1c1ccccc1C(F)(F)F (centres unmarked) [Bay K 8644] | – | – | – | – | – | – | – | no effect | no effect
